Results from PubChem BioAssay AID624129 (Sanford-Burnham Center for Chemical Genomics, 2012).
Active and inactive are the calls of the source. No rule for the calls is given here.

Key:
Experiment in all cases: potency against CXCR6 with APJ panel – cell-based, beta-arrestin, DiscoveRx, uHTS hits, dose response (AID 624129)
[1] = biological target: Apelin receptor (Homo sapiens) (UniProt P35414); details: CXCR6 beta-arrestin (DiscoveRx) antagonist cell assay, APJ
[2] = biological target: Beta-galactosidase (Escherichia coli) (UniProt Q8VNN2); details: CXCR6 beta-arrestin (DiscoveRx) antagonist cell assay, b-galactosidase
[3] = biological target: C-C chemokine receptor type 6 (Homo sapiens) (UniProt P51684); details: CXCR6 beta-arrestin (DiscoveRx) antagonist cell assay
[4] = biological target: C-X-C chemokine receptor type 6 (Homo sapiens) (UniProt O00574); details: CXCR6 beta-arrestin (DiscoveRx) antagonist cell assay; for inhibition: CXCR6, run 1, dose range 2, at 80 µM (top of the series)
[5] = dose range 1, mean IC50 across replicates
[6] = CCR6, dose range 1, mean IC50 across replicates
[7] = CXCR6, dose range 1, mean IC50 across replicates

Chain of Beta-galactosidase (Escherichia coli) (Q8VNN2 whole entry, looked up): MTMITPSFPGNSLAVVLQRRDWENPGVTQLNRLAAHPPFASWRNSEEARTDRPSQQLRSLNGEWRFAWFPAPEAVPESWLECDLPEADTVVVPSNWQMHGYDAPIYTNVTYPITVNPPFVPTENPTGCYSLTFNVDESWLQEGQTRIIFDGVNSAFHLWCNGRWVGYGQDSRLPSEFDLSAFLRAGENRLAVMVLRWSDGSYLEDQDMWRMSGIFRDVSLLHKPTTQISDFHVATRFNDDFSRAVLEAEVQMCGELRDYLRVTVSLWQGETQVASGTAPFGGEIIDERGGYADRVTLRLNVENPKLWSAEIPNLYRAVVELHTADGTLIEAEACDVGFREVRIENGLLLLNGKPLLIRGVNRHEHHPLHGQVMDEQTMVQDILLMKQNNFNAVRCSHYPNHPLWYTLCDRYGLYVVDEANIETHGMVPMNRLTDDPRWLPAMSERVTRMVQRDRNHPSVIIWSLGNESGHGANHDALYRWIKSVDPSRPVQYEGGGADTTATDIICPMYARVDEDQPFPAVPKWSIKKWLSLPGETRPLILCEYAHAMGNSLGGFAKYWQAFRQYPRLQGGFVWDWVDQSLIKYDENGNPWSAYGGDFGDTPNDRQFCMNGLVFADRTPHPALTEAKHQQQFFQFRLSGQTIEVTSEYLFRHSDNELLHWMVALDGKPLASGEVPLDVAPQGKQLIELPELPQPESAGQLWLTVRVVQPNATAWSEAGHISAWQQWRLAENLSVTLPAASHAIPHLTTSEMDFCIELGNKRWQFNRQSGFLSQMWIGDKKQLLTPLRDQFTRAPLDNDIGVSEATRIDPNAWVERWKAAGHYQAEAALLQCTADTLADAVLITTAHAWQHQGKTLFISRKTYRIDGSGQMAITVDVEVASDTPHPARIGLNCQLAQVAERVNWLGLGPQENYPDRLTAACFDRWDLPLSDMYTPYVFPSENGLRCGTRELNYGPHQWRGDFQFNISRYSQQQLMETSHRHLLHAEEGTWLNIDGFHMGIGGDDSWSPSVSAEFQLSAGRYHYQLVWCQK
Chain of C-X-C chemokine receptor type 6 (Homo sapiens) (O00574 whole entry, looked up): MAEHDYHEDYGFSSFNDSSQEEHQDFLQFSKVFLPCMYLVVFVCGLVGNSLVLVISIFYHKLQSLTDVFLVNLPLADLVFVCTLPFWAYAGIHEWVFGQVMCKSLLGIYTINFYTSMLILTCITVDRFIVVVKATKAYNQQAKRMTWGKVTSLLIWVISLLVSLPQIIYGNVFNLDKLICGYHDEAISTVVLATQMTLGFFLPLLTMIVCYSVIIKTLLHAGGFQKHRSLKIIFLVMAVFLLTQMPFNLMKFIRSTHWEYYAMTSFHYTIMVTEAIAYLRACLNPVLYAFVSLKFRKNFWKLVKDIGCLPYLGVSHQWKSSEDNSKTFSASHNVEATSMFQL

IC50 ([1]; dose range 1)	IC50 [1, 5]	IC50 ([1]; run 2, dose range 1)	IC50 ([1]; run 3, dose range 1)	IC50 ([2]; dose range 1)	IC50 [2, 5]	IC50 ([3]; CCR6, dose range 1)	IC50 [3, 6]	IC50 ([3]; CCR6, run 2, dose range 1)	IC50 [4, 7]	inhibition [4]	IC50 ([4]; CXCR6, run 2, dose range 1)	IC50 ([4]; CXCR6, dose range 1)	IC50 ([4]; CXCR6, run 1, dose range 2)	IC50 ([4]; CXCR6, run 2, dose range 2)	SMILES
7.19 µM	8.89 µM	10.8 µM	8.71 µM	> 80 µM (inactive)	> 80 µM	6.61 µM	5.6 µM	4.59 µM	4.95 µM	23.1%	4.95 µM	–	–	–	CC(=O)Nc1ccc(NC(=O)c2nc(S(=O)(=O)Cc3cccc(C)c3)ncc2Cl)cc1
4.18 µM	4.46 µM	5.15 µM	4.05 µM	> 80 µM (inactive)	> 80 µM	4.35 µM	4.64 µM	4.93 µM	4.01 µM	–	5.13 µM	4.5 µM	3.07 µM	3.34 µM	O=C(N/N=C(\c1ccccc1)c1cccnc1)c1cccc(F)c1
–	22.8 µM	22.8 µM	> 80 µM	> 80 µM (inactive)	> 80 µM	47 µM	47 µM	> 80 µM	9.66 µM	21.2%	> 80 µM	9.66 µM	–	–	O=C1C=CC(=O)N1c1cccc(-c2ccccc2)c1
5.45 µM	5.31 µM	5.18 µM	> 80 µM	> 80 µM (inactive)	> 80 µM	2.84 µM	3.1 µM	3.36 µM	4.9 µM	128%	> 80 µM	4.9 µM	–	–	O=C1C=CC(=O)N1c1ccc(-c2nc3ccccc3o2)cc1
9.28 µM	9.34 µM	8.14 µM	10.6 µM	> 80 µM (inactive)	> 80 µM	7.82 µM	8.7 µM	9.57 µM	7.74 µM	–	8.41 µM	8.77 µM	5.99 µM	7.81 µM	CC(Oc1ccc(F)cc1)C(=O)Nc1nc(-c2ccccn2)cs1 (stereo not drawn)
> 80 µM (inactive)	> 80 µM	> 80 µM	> 80 µM	> 80 µM (inactive)	> 80 µM	2.58 µM	12.9 µM	23.2 µM	11.3 µM	–	> 80 µM	inactive	3.9 µM	3.24 µM	O=[N+]([O-])c1c(NCCCO)cc(Sc2ccc(Cl)cc2)c2nonc12

More lines, now with the values behind:

SMILES	IC50 ([1]; dose range 1)	IC50 [1, 5]	IC50 ([1]; run 2, dose range 1)	IC50 ([1]; run 3, dose range 1)	IC50 ([2]; dose range 1)	IC50 [2, 5]	IC50 ([3]; CCR6, dose range 1)	IC50 [3, 6]	IC50 ([3]; CCR6, run 2, dose range 1)	IC50 [4, 7]	inhibition [4]	IC50 ([4]; CXCR6, run 2, dose range 1)	IC50 ([4]; CXCR6, dose range 1)	IC50 ([4]; CXCR6, run 1, dose range 2)	IC50 ([4]; CXCR6, run 2, dose range 2)
O=C1C(Cc2ccccc2)Nc2ncnc(N3CCN(c4ccccc4)CC3)c2N1Cc1ccc(Br)cc1 (stereo not drawn)	1.2 µM	2.26 µM	3.32 µM	> 80 µM	> 80 µM (inactive)	> 80 µM	1.67 µM	1.55 µM	1.44 µM	1.23 µM	–	0.993 µM	1.37 µM	1.42 µM	1.13 µM
COc1ccc(OC)c(NC(=O)c2nc(S(=O)(=O)Cc3ccccc3)ncc2Cl)c1	13.7 µM	12.6 µM	11.4 µM	> 80 µM	> 80 µM (inactive)	> 80 µM	7.57 µM	7.24 µM	6.9 µM	8.6 µM	–	8.78 µM	7.68 µM	8.96 µM	8.98 µM
O=C(CSc1cccc2cccnc12)N1CCCC1	4.54 µM	5.35 µM	6.22 µM	5.31 µM	> 80 µM (inactive)	> 80 µM	4.22 µM	5.29 µM	6.36 µM	6.17 µM	–	6.29 µM	10.7 µM	4.06 µM	3.6 µM
CC(C)N=C1CCCC1C(=S)SSC(=S)C1CCCC1=NC(C)C (stereo not drawn)	13.8 µM	23.7 µM	21.8 µM	35.4 µM	> 80 µM (inactive)	> 80 µM	9.02 µM	10.2 µM	11.4 µM	11.4 µM	–	17.8 µM	inactive	4.08 µM	4.99 µM
COc1cc(/C=C/c2ccc3cccc(O)c3n2)ccc1O	15.3 µM	19.1 µM	20.7 µM	21.4 µM	> 80 µM (inactive)	> 80 µM	13 µM	12.9 µM	12.9 µM	14.4 µM	131%	13.1 µM	inactive	–	–
O=C(NNC(=O)C12CC3CC(CC(C3)C1)C2)c1ccccn1	10.3 µM	9.16 µM	8.53 µM	8.62 µM	> 80 µM (inactive)	> 80 µM	8.92 µM	8.58 µM	8.23 µM	10.9 µM	–	8.52 µM	18.7 µM	5.57 µM	10.9 µM
O=C(CN1CCN(S(=O)(=O)c2ccc(Br)cc2)CC1)Nc1ccc2c(c1)OCO2	21.8 µM	24.8 µM	27.8 µM	> 80 µM	> 80 µM (inactive)	> 80 µM	20.7 µM	20.6 µM	20.6 µM	20.7 µM	100%	19.2 µM	inactive	–	–
C=C(CN(C)C)C(=O)c1ccc(C)cc1C	51.6 µM	39.5 µM	39.9 µM	27 µM	48.2 µM	48.2 µM	26 µM	29.1 µM	32.3 µM	45.6 µM	90.5%	25.5 µM	inactive	–	–
